# Data as given in US10285956B2, “N-(2-aminoethyl) ethanolamine (AEEA) and analogs to treat hypertrophic scarring and liposomal topical delivery” (BOARD OF REGENTS, THE UNIVERSITY OF TEXAS SYSTEM, priority 2016, dated 2019).
# Experiments:
# triple helical collagen = assay: Native (non-denaturing) gel of collagen tertiary structure (triple helix) in HS cells; type: cell-based, human; conditions: for TGFβ1 effect: increase in triple helical collagen: TGFβ1 exposure last 4 days
# Method: Native lysis buffer uses digitonin; see text. […] TGFβ1 treatment (4 days) increases mature (triple helical) structure, while changing monomer ratio, an effect that is mimicked by AEEA-alone at 25 μM but not at 50 μM (see text and FIG. 7 re: fibronectin). TGFβ1 effect appears attenuated by 50 μM AEEA.
# PGK1/2 is fraction marker. […] These collagen aberrations were then examined with non-denaturing, or “native” gels (FIG. 5). “Native” or “non-denaturing” gel electrophoresis is run in non-denaturing conditions, i.e., in the absence of any charged denaturing agents, such as SDS; and reducing agent. Native gel allows for the protein's natural structure to be maintained. Thus, the physical size of the folded or assembled complex affects mobility. In SDS-PAGE, the electrophoretic mobility of proteins depends primarily on their molecular mass alone; in native gel the mobility also depends on both the protein's charge and its hydrodynamic size. The native lysis buffer used contains: 50 mM Tris-HCl, pH 7.5; 150 mM NaCl and 1% Digitonin.
# However this finding is not present at 50 μM AEEA. Following 25 μM AEEA alone, a 6-fold increase was seen. The triple helical structure in the presence of both AEEA and TGFβ1 appeared relatively diminished.
# Total collagen content of the matrix can be determined by established extraction procedures and a dye-binding method based on the specific binding of Sirius Red dye to the [Gly-X-Y]n helical structure of collagen types I to XIV. The method has virtually an exact correlation with analytic methods for hydroxyproline content. Elastin can be determined in separate samples as soluble tropoelastin utilizing a dye binding assay (Accurate Chemical Corp., Westbury, N.Y.) and as insoluble elastin by repeated salt and alkali extraction as previously described. The effects of AEEA on collagen and other extra-cellular protein abundances can be further evaluated by using the normal human neonatal primary dermal fibroblast (ATCC® PCS-201-010™), and normal skin fibroblasts (NS Fb), and also hypertrophic scar fibroblasts (HS Fb) derived from skin of the other clinically evident HS developed by patients. Time course and dose response studies can also be used to test the effects of AEEA on stability of those proteins, by Western blotting, to see if it is degraded more quickly in the AEEA treated cells. For Western Blot, cultured N Fb and FS Fb grown and treated with AEEA as described above can be gently washed with 4° C. pre-chilled PBS. The plate is then placed on the surface of a −20° C. ice block. […] The protein concentrations of the samples extracted with RIPA measured by with the DC™ protein assay kit (Bio-Rad Laboratories, Inc. USA), while the protein of remaining extracts is quantitated with the BCA protein assay (Pierce). […]
# collagen type 1 = assay: Collagen type 1 extractability, sequential denaturing ECM extraction (RIPA then urea), Western blot densitometry; type: cell-based, human; conditions: for increased extractability of collagen type 1 (by densitometry): 14 day exposure, HS fibroblasts, urea lysis buffer
# Method: Preparation of Decellularized Matrix Scaffold, or Extracellular Matrix (ECM): The methods for isolation and characterization of the matrix of skin cells (fibroblastic-type cells) derived from normal (N Fb) and those derived from hypertrophic scar (HS Fb), as well as an embryonic fibroblast (E Fb) as a further control for comparison by the present inventors; these basic methods can be followed in the characterization of mechanism(s) of HS. Briefly, fibroblast-like cells are cultured on 13 mm diameter Nunc™ Thermanox™ Coverslips (Catalog #174950) in 24-well cell culture plates in DMEM supplemented with 13% FCS, antibiotics, and 50 μg/ml of sodium ascorbate; cells are seeded at the number that cell density reaches 70% confluence in 24 hours. AEEA treatments start before the formation of ECM, at the second day post passage. Sodium ascorbate, which is the crucial cofactor of lysyl oxidase (LOX), lysyl hydroxylase, and proline hydroxylase (to be assayed), is added daily, 5 days/week, to stimulate ECM assembly. AEEA is changed with culture media (every 3 days). […] The next day, water is replaced with PBS, and the preparation is ready for AFM, or other biochemical, molecular or proteomic studies as described below. […]
# Total collagen content of the matrix can be determined by established extraction procedures and a dye-binding method based on the specific binding of Sirius Red dye to the [Gly-X-Y]n helical structure of collagen types I to XIV. […] Elastin can be determined in separate samples as soluble tropoelastin utilizing a dye binding assay (Accurate Chemical Corp., Westbury, N.Y.) and as insoluble elastin by repeated salt and alkali extraction as previously described. The effects of AEEA on collagen and other extra-cellular protein abundances can be further evaluated by using the normal human neonatal primary dermal fibroblast (ATCC® PCS-201-010™), and normal skin fibroblasts (NS Fb), and also hypertrophic scar fibroblasts (HS Fb) derived from skin of the other clinically evident HS developed by patients. […]
# [1] = Rat model of 30% scald burn, localized injections, adverse effect on skin or burn wound healing; type: in vivo
# Method: To assess the possibility of an adverse AEEA effect on skin or burn wound healing, a rat model of 30% scald burn was utilized. AEEA was used to treat burns (or unburned skin as sham) by localized multiple injections (5 of 0.1 ml) of AEEA at 5.0 and 50.0 mM concentrations, which are 100- or 1,000-fold of the effective concentration in our cell culture, respectively, but is only 10% concentration of the rat DAA experiments by gavage.
# [2] = in utero exposure; cited from earlier work
# N-Cadherin = assay: Extractable N-Cadherin, denaturing gel, HS cells; type: cell-based, human; conditions: especially with both AEEA and TGFβ1
# Excerpt: (§1) In the native gel, intensities of integrin bands are not changed in a parallel fashion to that in denaturing gels, which may be the result of intramolecular alterations.
# (§2) […] In FIG. 6, the effect of AEEA on fibronectin, integrins αV and β5, and N-cadherin is examined, which have all been implicated in the development of HS. In a denaturing gel, TGFβ1 and AEEA exposure has a similar effect of increasing extractability of integrins and, to some extent, N-cadherin. […] Most interesting are interactions between AEEA and TGFβ1 with regard to HS cell expression of fibronectin, a critical molecule in cell adhesion, growth, migration, and differentiation, which is implicated in HS.
# α-SMA = α-SMA Western blot in normal (N) and HS skin fibroblasts; type: cell-based, human
# Excerpt: GAPDH is loading control. […] GAPDH is loading control. […] The effects of AEEA on collagen and other extra-cellular protein abundances can be further evaluated by using the normal human neonatal primary dermal fibroblast (ATCC® PCS-201-010™), and normal skin fibroblasts (NS Fb), and also hypertrophic scar fibroblasts (HS Fb) derived from skin of the other clinically evident HS developed by patients. Time course and dose response studies can also be used to test the effects of AEEA on stability of those proteins, by Western blotting, to see if it is degraded more quickly in the AEEA treated cells. For Western Blot, cultured N Fb and FS Fb grown and treated with AEEA as described above can be gently washed with 4° C. pre-chilled PBS. The plate is then placed on the surface of a −20° C. ice block. […] Therefore, samples are serially extracted with RIPA buffer, urea extraction buffer and then 0.5 M acetic acid; or, with native sample buffer, as described above. […] The protein concentrations of the samples extracted with RIPA measured by with the DC™ protein assay kit (Bio-Rad Laboratories, Inc. USA), while the protein of remaining extracts is quantitated with the BCA protein assay (Pierce). […] Signals are recorded on film (CL-XPousure™ film, Thermo Scientific) by using ECL™ Western blot detection reagents (Amersham Biosciences, RPN2209).
# fibronectin = assay: Fibronectin extractability, denaturing gel following digitonin, HS cells; type: cell-based, human
# Method: Increased extractability of fibronectin induced by TGFβ1, with little effect of AEEA at 25 or 50 μM. However, the TGFβ1 enhancement of fibronectin is blocked by 50 μM AEEA (last two lanes). Fibronectin, a critical cell adhesion molecule, is implicated in HS. […] See text for densitometric analysis, FIGS. 3-7.
# skin fibroblasts = assay: Scanning EM of interstitial matrix (skin fibroblasts removed); type: cell-based, human; conditions: AEEA 5, 10 mM, cells removed
# Method: Briefly, fibroblast-like cells are cultured on 13 mm diameter Nunc™ Thermanox™ Coverslips (Catalog #174950) in 24-well cell culture plates in DMEM supplemented with 13% FCS, antibiotics, and 50 μg/ml of sodium ascorbate; cells are seeded at the number that cell density reaches 70% confluence in 24 hours. AEEA treatments start before the formation of ECM, at the second day post passage. Sodium ascorbate, which is the crucial cofactor of lysyl oxidase (LOX), lysyl hydroxylase, and proline hydroxylase (to be assayed), is added daily, 5 days/week, to stimulate ECM assembly. AEEA is changed with culture media (every 3 days). […] After 14 days of culture, the resulting tissue sheets are gently rinsed twice with PBS, and then incubated in sterile deionized water for 20 minutes at 4° C. to lyse the cells with hypotonic condition (decellularization). Matrix is rinsed free of cell debris, and ECM samples are kept overnight at 4° C.
# Integrins αV and β5 = Integrins αV and β5 extractability, denaturing gel, HS cells; type: cell-based, human
# Excerpt: as §1, §2
Compound,"increase in triple helical collagen (triple helical collagen; 25 μM AEEA alone, 7 days, native gel) [fold]","TGFβ1 effect on triple helical collagen in presence of AEEA (triple helical collagen; 50 μM AEEA plus TGFβ1, 7 days)",increased extractability of collagen type 1 (by densitometry) (collagen type 1; 25 μM AEEA) [fold],increased extractability of collagen type 1 (by densitometry) (collagen type 1; 100 μM AEEA) [fold],"increase of Collagen I extractability, densitometrically (collagen type 1; human burn wound fibroblasts (from HS) cultured in 50 μM compound) [fold]","localized skin or systemic effects ([1]; 5 injections of 0.1 ml at 5.0 and 50.0 mM, burns or unburned skin)","histology, AEEA sites vs vehicle (PBS buffer) sites ([1]; normal unburned skin or full thickness burns, 7 days post-burn)",finding in rat pups born to mother rats exposed in utero [2],Extractable N-Cadherin (N-Cadherin),"α-SMA expression (α-SMA; 1-10 mM AEEA, 14 days, normal (N) and HS skin fibroblasts)","α-SMA expression (α-SMA; low (μM) AEEA doses, 14 day exposure, HS fibroblasts)","TGFβ1 enhancement of fibronectin in presence of AEEA (fibronectin; 50 μM AEEA plus TGFβ1, HS cells)","effect on extractability of fibronectin (fibronectin; AEEA at 25 or 50 μM alone, HS cells)",appearance of interstitial matrix by SEM (skin fibroblasts),effect on Integrins αV and β5 (extractability) (Integrins αV and β5),"TGFβ1 effect: increase in triple helical collagen (triple helical collagen; 0.0 (control) AEEA, 7 days) [fold]","TGFβ1 effect: increase in triple helical collagen (triple helical collagen; with 25 μM AEEA, 7 days) [fold]","increased extractability of fibronectin (fibronectin; TGFβ1 alone, denaturing gel, HS cells) [fold]"
"NCCNCCO [AEEA, N-(2-aminoethyl) ethanolamine]",6,not present,2,5,3,no untoward localized skin or systemic effects,no qualitative or quantitative differences,dramatic dissecting aortic aneurysms,increased,loss of α-SMA,not down-regulated,blocked,little effect,marked irregularities,increasing,,,
"TGFβ1: transforming growth factor-β1, regulator of scarring used to treat HS cells [reference compound]",,,,,,,,,increased,,,,,,increasing,10,16,5
